How the values were obtained:
[1] = biological target: T1, Solute carrier organic anion transporter family member 1B1 (Homo sapiens, UniProt Q9Y6L6); experiment: TP_TRANSPORTER: cell accumulation in OATP2-expressing HEK293 cells; format: functional, cell-based
T1 sequence (Q9Y6L6 whole entry): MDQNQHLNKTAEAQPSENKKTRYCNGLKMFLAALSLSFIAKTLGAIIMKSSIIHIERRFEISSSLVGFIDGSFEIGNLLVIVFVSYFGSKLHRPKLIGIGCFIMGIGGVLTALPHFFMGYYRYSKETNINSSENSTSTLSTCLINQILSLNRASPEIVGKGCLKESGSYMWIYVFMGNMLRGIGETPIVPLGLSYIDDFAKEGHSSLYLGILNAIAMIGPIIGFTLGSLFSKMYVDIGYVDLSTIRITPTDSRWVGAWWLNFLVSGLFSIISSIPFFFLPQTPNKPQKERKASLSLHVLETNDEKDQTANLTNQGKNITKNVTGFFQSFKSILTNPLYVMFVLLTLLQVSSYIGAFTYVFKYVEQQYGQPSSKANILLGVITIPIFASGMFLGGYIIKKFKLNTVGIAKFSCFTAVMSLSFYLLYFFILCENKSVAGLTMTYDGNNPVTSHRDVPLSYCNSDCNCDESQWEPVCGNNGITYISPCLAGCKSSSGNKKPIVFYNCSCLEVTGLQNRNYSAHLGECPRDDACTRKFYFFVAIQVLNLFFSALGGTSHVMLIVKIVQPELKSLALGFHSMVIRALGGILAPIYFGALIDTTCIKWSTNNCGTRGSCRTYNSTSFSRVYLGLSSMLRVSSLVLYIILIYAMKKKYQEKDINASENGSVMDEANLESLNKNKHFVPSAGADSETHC

[2] = biological target: T2, Solute carrier organic anion transporter family member 1B3 (Homo sapiens, UniProt Q9NPD5); experiment: TP_TRANSPORTER: cell accumulation in OATP8-expressing HEK293 cells; format: functional, cell-based
T2 sequence (Q9NPD5 whole entry): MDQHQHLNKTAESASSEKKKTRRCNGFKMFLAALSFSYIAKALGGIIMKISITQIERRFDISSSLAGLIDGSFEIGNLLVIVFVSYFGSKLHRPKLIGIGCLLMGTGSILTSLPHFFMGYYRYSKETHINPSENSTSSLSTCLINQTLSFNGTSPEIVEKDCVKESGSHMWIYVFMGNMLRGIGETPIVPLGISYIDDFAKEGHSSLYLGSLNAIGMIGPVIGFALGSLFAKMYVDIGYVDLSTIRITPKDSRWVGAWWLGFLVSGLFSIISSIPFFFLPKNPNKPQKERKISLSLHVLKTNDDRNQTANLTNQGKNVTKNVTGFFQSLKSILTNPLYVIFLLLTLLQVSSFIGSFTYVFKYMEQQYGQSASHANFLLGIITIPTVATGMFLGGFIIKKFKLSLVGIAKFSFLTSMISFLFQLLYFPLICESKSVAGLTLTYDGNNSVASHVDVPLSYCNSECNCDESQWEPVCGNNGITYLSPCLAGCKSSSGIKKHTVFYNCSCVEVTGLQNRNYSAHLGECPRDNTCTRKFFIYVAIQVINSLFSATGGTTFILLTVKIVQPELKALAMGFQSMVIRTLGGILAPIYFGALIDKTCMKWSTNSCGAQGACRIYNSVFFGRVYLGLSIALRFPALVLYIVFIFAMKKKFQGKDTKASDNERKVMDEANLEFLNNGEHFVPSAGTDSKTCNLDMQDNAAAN

| SMILES | Activity [1] | Activity [2] |
| --- | --- | --- |
| C[C@]12CC[C@@H]3c4ccc(O)cc4CC[C@H]3[C@@H]1CC[C@@H]2O[C@@H]1O[C@H](C(=O)O)[C@@H](O)[C@H](O)[C@H]1O [ESTRADIOL 17B GLUCURONIDE] | substrate [] | substrate [] |
| C[C@]12CC[C@@H]3c4ccc(OS(=O)(=O)O)cc4CC[C@H]3[C@@H]1CCC2=O [ESTRONE SULFURIC ACID] | substrate [] | substrate [] |
| O=C(O)C[C@H](O)C[C@H](O)/C=C/c1c(C2CC2)nc2ccccc2c1-c1ccc(F)cc1 [PITAVASTATIN] | substrate [] | substrate [] |
| CSCC[C@H](NC(=O)[C@H](Cc1ccc(OS(=O)(=O)O)cc1)NC(=O)[C@@H](N)CC(=O)O)C(=O)NCC(=O)N[C@@H](Cc1c[nH]c2ccccc12)C(=O)N[C@@H](CCSC)C(=O)N[C@@H](CC(=O)O)C(=O)N[C@@H](Cc1ccccc1)C(N)=O [SINCALIDE] | substrate [] | substrate [] |
